Where two headings read alike, the source gives them in different places.
Legend:
[1] = target: T1, TARC binding to Hut78 cells (Homo sapiens, UniProt P51679); experiment: Inhibitory activity on binding of [125I]-TARC to Hut78 cells; settings: for inhibition at 1 µM: read-out: The Binding Inhibitory Rates at 1 μmol/L (%)
T1 construct: host or cells: Hut78 cells (whole cells)
T1 sequence (P51679 1-360): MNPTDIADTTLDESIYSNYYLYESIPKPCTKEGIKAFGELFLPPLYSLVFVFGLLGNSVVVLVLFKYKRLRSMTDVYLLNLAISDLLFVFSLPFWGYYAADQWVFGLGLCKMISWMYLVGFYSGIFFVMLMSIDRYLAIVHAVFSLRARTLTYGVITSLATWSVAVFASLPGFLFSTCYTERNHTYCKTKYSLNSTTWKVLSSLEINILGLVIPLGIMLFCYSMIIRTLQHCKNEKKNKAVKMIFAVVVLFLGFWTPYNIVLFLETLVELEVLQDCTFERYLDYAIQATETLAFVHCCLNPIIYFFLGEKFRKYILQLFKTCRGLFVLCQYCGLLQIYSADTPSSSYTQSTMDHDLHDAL
Procedure: Inhibitory Activity on Binding of [^125I]-TARC to Hut78 Cells
The RPMI-1640 medium (Sigma-Aldrich Japan) containing 20 mmol/L HEPES [4-(2-hydroxyethyl)-1-piperazinylethanesulfonic acid; HEPES, Nacalai Tesque, Inc.] and 0.1 w/v % bovine serum albumin (SEIKAGAKU CORPORATION) was adjusted to pH 7.0 with sodium hydrogencarbonate (Wako Pure Chemical Industries, Ltd.) to yield a binding/wash buffer. In a 96-well round-bottomed plate (Corning Costar Corporation) were placed 60 μL of a suspension of Hut78 cells (ATCC No. TIB-161) (3×10^5 cells) in the binding/wash buffer, 20 μL of a solution of a test compound and 20 μL of a solution of 810 Bq of [^125I]-TARC (Amersham Biosciences K.K.) diluted with the binding/wash buffer up to the total aliquot of 100 μL, followed by reaction at room temperature for two hours. The solution of the test compound had been prepared by dissolving the test compound in dimethyl sulfoxide (Nacalai Tesque, Inc.) to a concentration of 10 mmol/L, and diluting the solution with the binding/wash buffer to a series of concentrations. The nonspecific binding was determined by a binding assay in the presence of a sufficient amount of unlabeled TARC. The total binding was defined as a binding in the case where dimethyl sulfoxide (Nacalai Tesque, Inc.) was added, instead of the test compound, in the same concentration (0.1 v/v %). After binding [^125I]-TARC to Hut78 cells, 50 μL of a polyethyleneimine solution (Nacalai Tesque, Inc.) diluted to 0.3 w/v % with the binding/wash buffer was added each of wells of a glass filter (Unifilter GF/B96, Packard BioScience Company), was rapidly filtrated using Filtermate 196 (Packard BioScience Company) and washed with the binding/wash buffer at 4° C. to thereby separate the radioactive ligand which is not bound to the cells. Microscinti 20 (Packard BioScience Company) was placed in each well at 50 μL/well, and the radioactivity on the glass filter was determined using Topcount NXT™ (Packard BioScience Company). The binding inhibitory rates (%) of the test compounds were determined by calculation according to the following equation: [formula] Total binding: [^125I]-TARC binding radioactivity without addition of the test compound Binding upon addition of test compound: [^125I]-TARC binding radioactivity at respective concentration upon addition of test compound
Nonspecific binding: [^125I]-TARC binding radioactivity upon addition of unlabeled TARC

[2] = tested on: CD4-positive T cells and eosinophils in the bronchoalveolar lavage fluid; experiment: Inhibitory activities on antigen-induced cellular infiltration (ovalbumin-sensitized mice, bronchoalveolar lavage fluid); type: in vivo, BALB/c mice
Procedure: Inhibitory Activities on Antigen-Induced Cellular Infiltration and Cytokine Production
BALB/c mice were sensitized by intraperitoneally administrating 50 μg of ovalbumin (Sigma-Aldrich Japan) and 1 mg of aluminum hydroxide (Wako Pure Chemical Industries, Ltd.) and further sensitized in the same manner on the 7th day from the first sensitization (0 day). From on the 23rd day, the mice were allowed to inhale a 1% ovalbumin physiological saline solution [prepared by dissolving ovalbumin in physiological saline (Otsuka Pharmaceutical Co., Ltd.) to a concentration 1%] using Supersonic Nebulizer NE-U 12 (OMRON Corporation) for 30 minutes once per 2 days (antigen nebulization). DMSO (Kanto Kagaku), Tween 80 (Wako Pure Chemical Industries), and 10 mmol/L acetic acid buffer containing 0.9% sodium chloride were mixed at a ratio of 5 to 5 to 90, whereby a liquid (an administration solvent) was prepared. Each test compound was dissolved in the administration solvent, whereby a solution for subcutaneous administration was prepared. The mice were grouped into test compound-administered groups and a control group. The test compound was subcutaneously administered to the mice of each of the test compound-administered groups at a dose of 30 mg/kg and the administration solvent was subcutaneously administered to the mice of the control group 30 minutes prior to the fourth antigen nebulization and after 4 hours from the fourth antigen nebulization. 8 hours after the fourth antigen nebulization, the bronchoalveolar lavage of each mouse was performed to obtain a bronchoalveolar lavage fluid. The number of CD4-positive T cells and eosinophils in the bronchoalveolar lavage fluid were counted. 10 mice were subjected to the each group in the test.

[3] = test compound 1 μmol/L, [125I]-TARC, Hut78 cells, room temperature, two hours

| inhibition at 1 µM [1, 3] [%] | Molecule | The Binding Inhibitory Rates at 1 μmol/L (%) [1, 3] [%] | inhibition at 1 µM [1] [%] | other results |
| --- | --- | --- | --- | --- |
|  | 4-(2,4-difluorobenzylamino)-5-(2,4-difluorophenyl)-2-[4-(1-methylpiperidinio)piperidino]pyrimidine iodide [Compound 72] | 96 |  |  |
|  | CC1CCCN(C2CCN(c3ncc(-c4ccc(F)cc4F)c(NCc4ccc(F)cc4F)n3)CC2)C1 (centres unmarked) [Compound 1, 4-(2,4-difluorobenzylamino)-5-(2,4-difluorophenyl)-2-[4-(3-methylpiperidino)piperidino]pyrimidine] |  | 91 |  |
|  | CC1CCCCN1C1CCN(c2ncc(-c3ccc(F)cc3F)c(NCc3ccc(F)cc3F)n2)CC1 (centres unmarked) [Compound 3, 4-(2,4-difluorobenzylamino)-5-(2,4-difluorophenyl)-2-[4-(2-methylpiperidino)piperidino]pyrimidine] |  | 93 |  |
| 92 | NC(=O)C1CCCN(C2CCN(c3ncc(-c4ccc(F)cc4F)c(NCc4ccc(F)cc4F)n3)CC2)C1 (centres unmarked) [Compound 8, 2-[4-(3-carbamoylpiperidino)piperidino]-4-(2,4-difluorobenzylamino)-5-(2,4-difluorophenyl)pyrimidine] |  |  | number of eosinophils in a bronchoalveolar lavage fluid obtained from each mouse ([2]; 30 mg/kg subcutaneously 30 minutes prior to and 4 hours after fourth antigen nebulization, lavage 8 hours after, mean±standard error, control (1.5±0.1)×10^5): (0.6±0.1)×10^5; number of CD4-positive T cells in a bronchoalveolar lavage fluid obtained from each mouse ([2]; 30 mg/kg subcutaneously 30 minutes prior to and 4 hours after fourth antigen nebulization, lavage 8 hours after, mean±standard error, control (1.9±0.2)×10^4): (0.6±0.1)×10^4; number of CD4-positive T cells less than that of the control group ([2]; 30 mg/kg subcutaneously, bronchoalveolar lavage fluid, P<0.0001, Aspin-Welch test): 68%; number of eosinophils less than that of the control group ([2]; 30 mg/kg subcutaneously, bronchoalveolar lavage fluid, P<0.0001, Student's test): 57% |
|  | CC1CCCN(C2CCN(c3ncc(-c4ccc(F)cc4F)c(NCc4c(F)cccc4F)n3)CC2)C1 (centres unmarked) [Compound 15, 4-(2,6-difluorobenzylamino)-5-(2,4-difluorophenyl)-2-[4-(3-methylpiperidino)piperidino]pyrimidine] |  | 90 |  |
| 89 | Fc1ccc(-c2cnc(N3CCC(N4CCCCC4)CC3)nc2NCc2c(F)cccc2F)c(F)c1 [Compound 40, 4-(2,6-difluorobenzylamino)-5-(2,4-difluorophenyl)-2-(4-piperidinopiperidino)pyrimidine] |  |  |  |
| 81 | Fc1ccc(-c2cnc(N3CCC(N4CCCCC4)CC3)nc2NCc2ccc(Cl)cc2F)c(F)c1 [Compound 58, 4-(4-chloro-2-fluorobenzylamino)-5-(2,4-difluorophenyl)-2-(4-piperidinopiperidino)pyrimidine] |  |  |  |
| 82 | Fc1ccc(-c2cnc(N3CCC(N4CCCCC4)CC3)nc2NCc2c(F)cccc2Cl)c(F)c1 [Compound 61, 4-(2-chloro-6-fluorobenzylamino)-5-(2,4-difluorophenyl)-2-(4-piperidinopiperidino)pyrimidine] |  |  |  |
|  | CC[N+]1(C2CCN(c3ncc(-c4ccc(F)cc4F)c(NCc4ccc(F)cc4F)n3)CC2)CCCCC1.[I-] [Compound 73, 4-(2,4-difluorobenzylamino)-5-(2,4-difluorophenyl)-2-[4-(1-ethylpiperidinio)piperidino]pyrimidine iodide] | 99 |  |  |
|  | C=CC[N+]1(C2CCN(c3ncc(-c4ccc(F)cc4F)c(NCc4ccc(F)cc4F)n3)CC2)CCCCC1.[Br-] [Compound 75, 2-[4-(1-allylpiperidinio)piperidino]-4-(2,4-difluorobenzylamino)-5-(2,4-difluorophenyl)pyrimidine bromide] | 97 |  |  |

Source: US20060194811A1, “Pyrimidine derivatives” (KYOWA HAKKO KOGYO CO., LTD., priority 2003, published 2006)
